Results published in patent US20260152487A1 (Sitryx Therapeutics Limited, priority 2021, published 2026).
Read-outs that look alike come from different tables or passages of the source.

Tests used:
recombinant human PKM2 = biological target: T1, recombinant human PKM2 (Homo sapiens, UniProt P14618); experiment: Human PKM2 activation assay (Kinase-Glo Plus luminescent detection of generated ATP); assay type: biochemical; settings: for Emax: read-out: hPKM2 Emax; for EC50: read-out: hPKM2 EC50
T1 construct: His (N); purchased R&D Systems
Summary of the method: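 Luminescent ATP detection (Kinase-Glo Plus, 15 min, 26 °C) followed a 60 min, 26 °C shaken reaction of compound with […] His-tagged human PKM2, PEP and ADP in imidazole/KCl/MgCl2 buffer with Tween20 and BSA, pH 7.2.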

recombinant human PKLR = biological target: T2, recombinant human PKLR (Homo sapiens, UniProt P30613); experiment: Human PKLR activation assay (Kinase-Glo Plus luminescent detection of generated ATP); assay type: biochemical; settings: for EC50: read-out: hPKLR EC50; for Emax: read-out: hPKLR Emax (%)
T2 construct: His (N); purchased R&D Systems
Protocol: Compound activation of recombinant human PKLR pyruvate kinase activity was determined by biochemical assay. N-terminal His-tagged enzyme was sourced from R&D Systems and its substrates phosphoenolpyruvate (PEP) and ADP from Sigma-Aldrich and 2Bscientific Ltd, respectively. The Kinase-Glo® Plus luminescence assay was from Promega. All other reagents were from Sigma-Aldrich. Test Compounds were prepared as 10 mM DMSO stocks and dilution series prepared in DMSO for direct dilution into Assay Buffer comprising 50 mM imidazole, 50 mM KCl, 7 mM MgCl2, 0.01% Tween20, 0.05% BSA (pH 7.2).
Human PKLR was diluted into Assay Buffer to a final concentration of 5 pM. Enzyme-Assay Buffer mix was dispensed into 384-well shallow-well white-walled plates and Test Compounds added by acoustic dispense (Echo®, Labcyte Inc).
After 60 minutes' incubation on an orbital shaker (300 rpm, 26° C.), enzyme activity was quantified by the luminescent detection of generated ATP. Kinase-Glo® Plus reagent was added to each well and the plates incubated for a further 15 minutes on an orbital shaker in the dark (300 rpm, 26° C.) before luminescence measurement on a plate reader (PHERAstar® FSX, BMG Labtech).
Percentage activation was calculated by normalising […] signals to plate LOW (DMSO vehicle) and HIGH (5 μM TEPP-46) controls. EC50 and Emax values were determined from 4-parameter logistic fits of compound concentration-response curves.

[1] = percentage activation normalised to DMSO vehicle (LOW) and 5 μM TEPP-46 (HIGH)
[2] = recombinant human PKM2 activation, 4-parameter logistic fit
[3] = activation of recombinant human PKLR, 4-parameter logistic fit
[4] = percentage activation normalised to DMSO vehicle (LOW) and 5 μM TEPP-46 (HIGH) controls

T1 sequence (P14618 2-531 limits assumed): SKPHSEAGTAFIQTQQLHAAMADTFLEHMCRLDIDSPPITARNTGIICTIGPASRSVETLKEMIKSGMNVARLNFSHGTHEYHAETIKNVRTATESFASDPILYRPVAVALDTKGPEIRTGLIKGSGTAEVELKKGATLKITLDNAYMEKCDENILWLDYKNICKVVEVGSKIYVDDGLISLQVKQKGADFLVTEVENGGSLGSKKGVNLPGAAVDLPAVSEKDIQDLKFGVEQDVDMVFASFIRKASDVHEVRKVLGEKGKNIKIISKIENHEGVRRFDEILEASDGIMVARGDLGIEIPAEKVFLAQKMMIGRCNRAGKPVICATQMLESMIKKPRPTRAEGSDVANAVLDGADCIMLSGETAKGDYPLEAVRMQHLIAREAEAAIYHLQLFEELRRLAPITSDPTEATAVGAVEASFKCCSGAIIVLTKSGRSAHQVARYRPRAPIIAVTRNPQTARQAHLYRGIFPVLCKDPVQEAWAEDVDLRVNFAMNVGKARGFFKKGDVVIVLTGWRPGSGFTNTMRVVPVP
T2 sequence (P30613 whole entry): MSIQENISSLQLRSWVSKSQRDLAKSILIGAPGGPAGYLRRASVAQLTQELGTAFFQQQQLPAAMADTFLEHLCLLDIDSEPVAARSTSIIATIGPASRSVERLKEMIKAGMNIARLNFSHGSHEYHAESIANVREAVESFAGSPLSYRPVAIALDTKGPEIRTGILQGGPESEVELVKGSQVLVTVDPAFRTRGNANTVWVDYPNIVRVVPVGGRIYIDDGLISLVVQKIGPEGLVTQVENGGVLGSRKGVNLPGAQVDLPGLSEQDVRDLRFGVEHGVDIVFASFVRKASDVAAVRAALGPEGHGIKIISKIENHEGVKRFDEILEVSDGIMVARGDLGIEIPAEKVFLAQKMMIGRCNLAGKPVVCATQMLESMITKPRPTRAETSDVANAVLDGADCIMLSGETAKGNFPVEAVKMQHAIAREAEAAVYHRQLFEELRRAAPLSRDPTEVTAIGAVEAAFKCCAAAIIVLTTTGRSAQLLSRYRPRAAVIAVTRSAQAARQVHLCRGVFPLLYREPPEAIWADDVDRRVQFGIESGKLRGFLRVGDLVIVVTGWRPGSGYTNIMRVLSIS

| SMILES | Emax (recombinant human PKM2; [1]) [%] | EC50 (recombinant human PKM2; [2]) [µM] | EC50 (recombinant human PKLR; [3]) [µM] | Emax (recombinant human PKLR; [4]) [%] | EC50 (recombinant human PKM2; data from repeat experiments (*)) [µM] | Emax (recombinant human PKM2; line of the repeat experiment (EC50 marked *)) [%] | EC50 (recombinant human PKLR; * data from repeat experiments) [µM] | Emax (recombinant human PKLR; line of the repeat experiments (EC50 marked *)) [%] |
| --- | --- | --- | --- | --- | --- | --- | --- | --- |
| Cn1cc(S(=O)(=O)c2ccc3c(=O)n(Cc4cc[nH]n4)ncc3c2)cn1 [Example 240, 2-((1H-pyrazol-3-yl)methyl)-6-((1-methyl-1H-pyrazol-4-yl)sulfonyl)phthalazin-1(2H)-one] | 107 | 0.159 | 0.0303 | 125 |  |  |  |  |
| O=c1c2ccc(S(=O)(=O)c3cnn(CCO)c3)cc2cnn1Cc1cc[nH]n1 [Example 241, 2-((1H-pyrazol-3-yl)methyl)-6-((1-(2-hydroxyethyl)-1H-pyrazol-4-yl)sulfonyl)phthalazin-1(2H)-one] | 106 | 0.118 | 0.0275 | 129 |  |  |  |  |
| Cn1ccc(Cn2ncc3cc(S(=O)(=O)c4ccccc4)c(F)cc3c2=O)n1 [Example 242, 7-fluoro-2-((1-methyl-1H-pyrazol-3-yl)methyl)-6-(phenylsulfonyl)phthalazin-1(2H)-one] | 107 | 0.102 | 0.0222 | 134 |  |  |  |  |
| Cn1ccc(Cn2ncc3cc(S(=O)(=O)c4ccccc4)c(NCCO)cc3c2=O)n1 [Example 244, 7-((2-hydroxyethyl)amino)-2-((1-methyl-1H-pyrazol-3-yl)methyl)-6-(phenylsulfonyl)phthalazin-1(2H)-one] | 105 | 0.206 | 0.0274 | 123 |  |  |  |  |
| Cc1nc(Cn2ncc3cc(S(=O)(=O)c4cn[nH]c4)ccc3c2=O)ccc1F [Example 251, 6-((1H-pyrazol-4-yl)sulfonyl)-2-((5-fluoro-6-methylpyridin-2-yl)methyl)phthalazin-1(2H)-one] | 116 | 0.111 | 0.0113 | 111 |  |  |  |  |
| Cc1ccc(F)c(Cn2ncc3cc(S(=O)(=O)c4cn[nH]c4)ccc3c2=O)n1 [Example 252, 6-((1H-pyrazol-4-yl)sulfonyl)-2-((3-fluoro-6-methylpyridin-2-yl)methyl)phthalazin-1(2H)-one] | 105 | 0.107 | 0.018 | 120 |  |  |  |  |
| O=c1c2ccc(S(=O)(=O)c3cn[nH]c3)cc2cnn1Cc1ccc2c(n1)CCO2 [Example 253, 6-(1H-pyrazol-4-ylsulfonyl)-2-((2,3-dihydrofuro[3,2-b]pyridin-5-yl)methyl)phthalazin-1(2H)-one] | 104 | 0.0201 | 0.00559 | 107 | 0.0216 | 105 | 0.00432 | 118 |
| O=c1c2ccc(S(=O)(=O)c3ccc4occc4n3)cc2cnn1Cc1ccn(C2CC2)n1 [Example 256, 2-((1-cyclopropyl-1H-pyrazol-3-yl)methyl)-6-(furo[3,2-b]pyridin-5-ylsulfonyl)phthalazin-1(2H)-one] | 95.5 | 0.0317 | 0.00333 | 136 |  |  |  |  |
| O=c1c2ccc(S(=O)(=O)c3cc4c(cn3)OCC4)cc2cnn1Cc1cc[nH]n1 [Example 258, 2-((1H-pyrazol-3-yl)methyl)-6-((2,3-dihydrofuro[2,3-c]pyridin-5-yl)sulfonyl)phthalazin-1(2H)-one] | 108 | 0.0888 | 0.0153 | 142 |  |  |  |  |
| Cc1cccc(Cn2ncc3cc(S(=O)(=O)c4cnn(C5CC5)c4)ccc3c2=O)n1 [Example 259, 6-((1-cyclopropyl-1H-pyrazol-4-yl)sulfonyl)-2-((6-methylpyridin-2-yl)methyl)phthalazin-1(2H)-one] | 96.7 | 0.0461 | 0.0131 | 123 |  |  |  |  |
| O=c1c2cc(NCCO)c(S(=O)(=O)c3ccccc3)cc2cnn1Cc1ccn(C2CC2)n1 [Example 265, 2-((1-cyclopropyl-1H-pyrazol-3-yl)methyl)-7-((2-hydroxyethyl)amino)-6-(phenylsulfonyl)phthalazin-1(2H)-one] | 114 | 0.134 | 0.0135 | 127 |  |  |  |  |
| Cc1cccc(Cn2ncc3cc(S(=O)(=O)c4cnn(C5COC5)c4)ccc3c2=O)n1 [Example 270, 2-((6-methylpyridin-2-yl)methyl)-6-((1-(oxetan-3-yl)-1H-pyrazol-4-yl)sulfonyl)phthalazin-1(2H)-one] | 103 | 0.138 | 0.108 | 136 |  |  |  |  |
| COc1ccc(Cn2ncc3cc(S(=O)(=O)c4cnn(CCO)c4)ccc3c2=O)cn1 [Example 271, 6-((1-(2-hydroxyethyl)-1H-pyrazol-4-yl)sulfonyl)-2-((6-methoxypyridin-3-yl)methyl)phthalazin-1(2H)-one] | 81.3 | 0.0545 | 0.0264 | 119 |  |  |  |  |

Further lines, results first:

| Emax (recombinant human PKM2; [1]) [%] | EC50 (recombinant human PKM2; [2]) [µM] | EC50 (recombinant human PKLR; [3]) [µM] | Emax (recombinant human PKLR; [4]) [%] | EC50 (recombinant human PKM2; data from repeat experiments (*)) [µM] | Emax (recombinant human PKM2; line of the repeat experiment (EC50 marked *)) [%] | EC50 (recombinant human PKLR; * data from repeat experiments) [µM] | Emax (recombinant human PKLR; line of the repeat experiments (EC50 marked *)) [%] | SMILES |
| --- | --- | --- | --- | --- | --- | --- | --- | --- |
| 91.3 | 0.0934 | 0.0391 | 124 |  |  |  |  | O=c1c2ccc(S(=O)(=O)c3cnn(CCO)c3)cc2cnn1Cc1ccn(C2CC2)n1 [Example 272, 2-((1-cyclopropyl-1H-pyrazol-3-yl)methyl)-6-((1-(2-hydroxyethyl)-1H-pyrazol-4-yl)sulfonyl)phthalazin-1(2H)-one] |
| 95.9 | 0.0505 | 0.0195 | 120 |  |  |  |  | Cn1cc(S(=O)(=O)c2ccc3c(=O)n(Cc4cccc(C5CC5)n4)ncc3c2)cn1 [Example 275, 2-((6-cyclopropylpyridin-2-yl)methyl)-6-((1-methyl-1H-pyrazol-4-yl)sulfonyl)phthalazin-1(2H)-one] |
| 103 | 0.0452 | 0.013 | 110 |  |  |  |  | O=c1c2ccc(S(=O)(=O)c3cn[nH]c3)cc2cnn1Cc1cccc(C2CC2)n1 [Example 287, 6-((1H-pyrazol-4-yl)sulfonyl)-2-((6-cyclopropylpyridin-2-yl)methyl)phthalazin-1(2H)-one] |
| 108 | 0.0196 | 0.00265 | 118 |  |  |  |  | O=c1c2ccc(S(=O)(=O)c3cn[nH]c3)cc2cnn1Cc1ccc2occc2n1 [Example 298, 6-((1H-pyrazol-4-yl)sulfonyl)-2-(furo[3,2-b]pyridin-5-ylmethyl)phthalazin-1(2H)-one] |
|  | 0.0504 | 0.00658 |  |  |  |  |  | O=c1c2ccc(S(=O)(=O)c3cnn(CCO)c3)cc2cnn1Cc1ccc2c(n1)CCO2 [Example 309] |
| 94.9 | 0.0463 | 0.00427 | 114 |  |  |  |  | Cc1[nH]nc(Cn2ncc3cc(S(=O)(=O)c4cn[nH]c4)ccc3c2=O)c1Cl [Example 314] |
| 99.6 | 0.12 | 0.0148 | 131 |  |  |  |  | Cc1nc(S(=O)(=O)c2ccc3c(=O)n(Cc4cc[nH]n4)ncc3c2)cs1 [Example 320] |
| 100 | 0.0734 | 0.00657 | 134 |  |  |  |  | Cc1cc(F)c(Cn2ncc3cc(S(=O)(=O)c4cn[nH]c4)ccc3c2=O)nc1C [Example 321] |
|  | 0.0505 | 0.00644 |  |  |  |  |  | O=c1c2ccc(S(=O)(=O)c3cn[nH]c3)cc2cnn1Cc1cc2n(n1)CCO2 [Example 323] |
| 10 | 0.0369 | 0.00371 | 124 |  |  |  |  | CC(O)c1nc(S(=O)(=O)c2ccc3c(=O)n(Cc4ccc5c(n4)CCO5)ncc3c2)cs1 (centres unmarked) [Example 327] |
